{"source": "patent US20060009432A1", "about": "“Use of neurosteroids to treat neuropathic pain” (priority 2004, published 2006)", "system": "chronic constriction injury (CCI) of the sciatic nerve, rats", "experiment": "Cold allodynia (acetone application) in chronic constriction injury model", "format": "in vivo, rat", "conditions": "neuropathic pain model as disclosed in Example 2", "method": "Unilateral sciatic nerve injury was produced under deep anesthesia with i.p injection of sodium pentobarbital (Mebumal, 60 mg/kg), as described by Bennett and Xie (Pain, 33, 87-107(1988)). The common sciatic nerve was exposed and freed for about 10 mm at mid-thigh level. Four ligatures (Ethicon, 4.0 plain gut) were tied loosely around the nerve with about 1-mm spacing creating a chronic constriction injury (CCl), and the incision was closed.\nBrisk foot withdrawal in response to acetone application was measured based on the method described by Choi et al. The acetone bubble was gently brought in touch with the plantar surface around the center, and the acetone quickly spread over the central part of the plantar surface of the foot. Applications were made five times (once every 5 min) to each paw. The score for each application was recorded as follows: foot withdrawal was scored as positive (1) and lack of withdrawal as negative (O). The total score (0 to 5) was taken as index for cold sensitivity of the foot […]. This approximates pain from a non-noxious stimulus, i.e. allodynia.\nCold allodynia response was measured 15, 30, 45, 60, 90 and 120 minutes after i.p. administration of ganaxolone (at 1 mg/kg, 3 mg/kg or 10 mg/kg) as well as prior to administration of the neurosteroid and prior to infliction of the neural injury. Table 1 provides the resulting measurement of cold allodynia response in groups of six rats per dosage level. The abbreviation “s.e.m.” means standard error mean."}
{"smiles": "C[C@]12CC[C@@H](O)C[C@@H]1CC[C@H]1[C@@H]3CC[C@H](C(=O)CO)[C@@]3(C)CC(=O)[C@@H]12", "note": "[Alphadolone, reference compound]", "values": [{"measurement": "Activity in the neuropathic pain model", "result": "inactive"}]}
